# Experimental data as given in ChEMBL document CHEMBL4130462, “Natural isoflavone biochanin A as a template for the design of new and potent 3-phenylquinolone efflux inhibitors against Mycobacterium avium” (Eur J Med Chem, 2017).
# What was measured:
# Mycobacterium avium [1] = conditions: 104 mc'2 4
# Mycobacterium avium [2] = conditions: 104
# Mycobacterium avium [3] = conditions: isolate MAV3
# Mycobacterium avium [4] = conditions: 104 mc'2 4; remark: listed apart in the source
# [5] = test system: Mycobacterium avium subsp. avium ATCC 25291
# Mycobacterium avium [6] = experiment: Antimycobacterial activity against Mycobacterium avium isolate MAV2 assessed as reduction in bacterial viability incubated for 3 days by MTT assay; type: organism-based; conditions: 72 h
# Mycobacterium avium [7] = conditions: isolate MAV1
# Description: Inhibition of multidrug resistance efflux pump in Mycobacterium avium isolate MAV1 assessed as potentiation of ofloxacin-induced antibacterial activity by measuring ofloxacin MIC at 1/2 MIC incubated for 3 days by MTT assay (Rvb = 4 ug/ml)
# Mycobacterium avium [8] = conditions: isolate MAV2
# Mycobacterium avium [9] = conditions: 104 mc'2 4; remark: listed apart in the source
# Mycobacterium avium [10] = conditions: isolate MAV3; remark: listed apart in the source
# Mycobacterium avium [11] = conditions: 104; remark: listed apart in the source
# [12] = test system: Mycobacterium avium subsp. avium ATCC 25291; remark: listed apart in the source
# Description: Inhibition of multidrug resistance efflux pump in Mycobacterium avium ATCC 25291 assessed as potentiation of clarithromycin -induced antibacterial activity by measuring clarithromycin MIC at 1/4 MIC incubated for 3 days by MTT assay
# Mycobacterium avium [13] = conditions: 104 mc'2 3
# [14] = test system: Mycobacterium avium subsp. avium ATCC 25291; remark: listed apart in the source
# Mycobacterium avium [15] = conditions: 104 mc'2 4; remark: listed apart in the source
# [16] = test system: Mycobacterium avium subsp. avium ATCC 25291; remark: listed apart in the source
# Description: Inhibition of multidrug resistance efflux pump in Mycobacterium avium ATCC 25291 assessed as potentiation of ethidium bromide-induced antibacterial activity by measuring ethidium bromide MIC at 1/2 MIC incubated for 3 days by MTT assay (Rvb = 50 ug/ml)
# [17] = test system: Mycobacterium avium subsp. avium ATCC 25291; remark: listed apart in the source
# Description: Inhibition of multidrug resistance efflux pump in Mycobacterium avium ATCC 25291 assessed as potentiation of clarithromycin -induced antibacterial activity by measuring clarithromycin MIC at 1/2 MIC incubated for 3 days by MTT assay
# Mycobacterium avium [18] = conditions: 104; remark: listed apart in the source
# Mycobacterium avium [19] = conditions: 104; remark: listed apart in the source
# Mycobacterium avium [20] = conditions: isolate MAV3; remark: listed apart in the source
# Mycobacterium avium [21] = conditions: isolate MAV4
# Mycobacterium avium [22] = conditions: isolate MAV3; remark: listed apart in the source
# Mycobacterium avium [23] = conditions: 104 mc'2 3; remark: listed apart in the source
# [24] = test system: Mycobacterium avium subsp. avium ATCC 25291; remark: listed apart in the source
# Mycobacterium avium [25] = conditions: isolate MAV2; remark: listed apart in the source
# Mycobacterium avium [26] = conditions: isolate MAV1; remark: listed apart in the source
# Mycobacterium avium [27] = conditions: isolate MAV4; remark: listed apart in the source
# Description: Inhibition of multidrug resistance efflux pump in Mycobacterium avium isolate MAV4 assessed as potentiation of clarithromycin -induced antibacterial activity by measuring clarithromycin MIC at 1/4 MIC incubated for 3 days by MTT assay
# [28] = test system: Mycobacterium avium subsp. avium ATCC 25291; remark: listed apart in the source
# Mycobacterium avium [29] = conditions: 104; remark: listed apart in the source
# Mycobacterium avium [30] = conditions: 104; remark: listed apart in the source
# Mycobacterium avium [31] = conditions: isolate MAV1; remark: listed apart in the source
# Description: Inhibition of multidrug resistance efflux pump in Mycobacterium avium isolate MAV1 assessed as potentiation of ciprofloxacin-induced antibacterial activity by measuring ciprofloxacin MIC at 1/2 MIC incubated for 3 days by MTT assay (Rvb = 2 ug/ml)
# Mycobacterium avium [32] = conditions: isolate MAV2; remark: listed apart in the source
# Description: Inhibition of multidrug resistance efflux pump in Mycobacterium avium isolate MAV2 assessed as potentiation of ofloxacin-induced antibacterial activity by measuring ofloxacin MIC at 1/2 MIC incubated for 3 days by MTT assay
# Mycobacterium avium [33] = conditions: isolate MAV2; remark: listed apart in the source
# Mycobacterium avium [34] = conditions: 104 mc'2 4; remark: listed apart in the source
# Mycobacterium avium [35] = conditions: 104 mc'2 3; remark: listed apart in the source
# Mycobacterium avium [36] = conditions: isolate MAV4; remark: listed apart in the source
# Description: Inhibition of multidrug resistance efflux pump in Mycobacterium avium isolate MAV4 assessed as potentiation of ethidium bromide-induced antibacterial activity by measuring ethidium bromide MIC at 1/4 MIC incubated for 3 days by MTT assay
# Mycobacterium avium [37] = conditions: isolate MAV4; remark: listed apart in the source
# Mycobacterium avium [38] = conditions: isolate MAV1; remark: listed apart in the source
# Mycobacterium avium [39] = experiment: Antimycobacterial activity against Mycobacterium avium isolate MAV3 assessed as reduction in bacterial viability incubated for 3 days by MTT assay; type: organism-based; conditions: 72 h
# Mycobacterium avium [40] = conditions: isolate MAV2; remark: listed apart in the source
# Description: Inhibition of multidrug resistance efflux pump in Mycobacterium avium isolate MAV2 assessed as potentiation of clarithromycin -induced antibacterial activity by measuring clarithromycin MIC at 1/4 MIC incubated for 3 days by MTT assay (Rvb = >1024 ug/ml)
# Mycobacterium avium [41] = conditions: isolate MAV1; remark: listed apart in the source
# Mycobacterium avium [42] = conditions: isolate MAV3; remark: listed apart in the source
# Mycobacterium avium [43] = conditions: 104 mc'2 4; remark: listed apart in the source
# Mycobacterium avium [44] = conditions: isolate MAV4; remark: listed apart in the source
# [45] = Cytotoxicity in human monocyte-derived macrophages assessed as reduction in cell viability incubated for 3 days by alamar blue dye based assay; parameters: species or system Macrophage cell line; conditions: for CC50 at 72 h: human monocyte-derived macrophages; for MTC: macrophage cell line, 72 h
# Mycobacterium avium [46] = conditions: 104 mc'2 4; remark: listed apart in the source
# Mycobacterium avium [47] = conditions: 104 mc'2 3; remark: listed apart in the source
# Mycobacterium avium [48] = conditions: 104 mc'2 4; remark: listed apart in the source
# Mycobacterium avium [49] = conditions: isolate MAV3; remark: listed apart in the source
# Mycobacterium avium [50] = conditions: 104; remark: listed apart in the source
# Description: Inhibition of multidrug resistance efflux pump in Mycobacterium avium 104 assessed as potentiation of clarithromycin -induced antibacterial activity by measuring clarithromycin MIC at 1/2 MIC incubated for 3 days by MTT assay
# Mycobacterium avium [51] = conditions: isolate MAV4; remark: listed apart in the source
# Mycobacterium avium [52] = conditions: isolate MAV3; remark: listed apart in the source
# Mycobacterium avium [53] = conditions: isolate MAV4; remark: listed apart in the source
# Mycobacterium avium [54] = conditions: isolate MAV2; remark: listed apart in the source
# Mycobacterium avium [55] = conditions: 104 mc'2 3; remark: listed apart in the source
# Mycobacterium avium [56] = conditions: isolate MAV4; remark: listed apart in the source
# Mycobacterium avium [57] = conditions: 104 mc'2 4; remark: listed apart in the source
# Mycobacterium avium [58] = conditions: 104; remark: listed apart in the source
# Mycobacterium avium [59] = conditions: isolate MAV3; remark: listed apart in the source
# Mycobacterium avium [60] = conditions: isolate MAV3; remark: listed apart in the source
# Mycobacterium avium [61] = conditions: 104; remark: listed apart in the source
# Mycobacterium avium [62] = conditions: isolate MAV1; remark: listed apart in the source
# Mycobacterium avium [63] = conditions: 104; remark: listed apart in the source
# Description: Inhibition of multidrug resistance efflux pump in Mycobacterium avium 104 assessed as potentiation of clarithromycin -induced antibacterial activity by measuring clarithromycin MIC at 1/4 MIC incubated for 3 days by MTT assay
# Mycobacterium avium [64] = conditions: isolate MAV1; remark: listed apart in the source
# [65] = test system: Mycobacterium avium subsp. avium ATCC 25291; remark: listed apart in the source
# Mycobacterium avium [66] = conditions: isolate MAV2; remark: listed apart in the source
# Mycobacterium avium [67] = conditions: isolate MAV1; remark: listed apart in the source
# [68] = Safety index, ratio of CC50 for test compound to CC50 for chlorpromazine for cytotoxicity in human monocyte-derived macrophages; type: cell-based, Macrophage cell line
structure (smiles),measurement,setting,value
CCCOc1ccc(-c2cn(CCN(CC)CC)c3ccccc3c2=O)cc1,MIC,Mycobacterium avium [1],512 µg/mL
same,MIC,Mycobacterium avium [2],4 µg/mL
same,MIC,Mycobacterium avium [3],32 µg/mL
same,MIC,Mycobacterium avium [4],2 µg/mL
same,MIC,[5],128 µg/mL
same,MIC,Mycobacterium avium [6],256 µg/mL
same,MIC,Mycobacterium avium [7],4 µg/mL
same,MIC,Mycobacterium avium [8],6.25 µg/mL
same,MIC,Mycobacterium avium [9],256 µg/mL
same,MIC,Mycobacterium avium [10],32 µg/mL
same,MIC,Mycobacterium avium [11],3.12 µg/mL
same,MIC,[12],8 µg/mL
same,MIC,Mycobacterium avium [13],128 µg/mL
same,MIC,[14],64 µg/mL
same,MIC,Mycobacterium avium [15],128 µg/mL
same,MIC,[16],25 µg/mL
same,MIC,[17],8 µg/mL
same,MIC,Mycobacterium avium [18],6.25 µg/mL
same,MIC,Mycobacterium avium [19],1 µg/mL
same,MIC,Mycobacterium avium [20],4 µg/mL
same,MIC,Mycobacterium avium [21],64 µg/mL
same,MIC,Mycobacterium avium [22],128 µg/mL
same,MIC,Mycobacterium avium [23],8 µg/mL
same,MIC,[24],32 µg/mL
same,MIC,Mycobacterium avium [25],> 512 µg/mL
same,MIC,Mycobacterium avium [26],2 µg/mL
same,MIC,Mycobacterium avium [27],8 µg/mL
same,MIC,[28],128 µg/mL
same,MIC,Mycobacterium avium [29],16 µg/mL
same,MIC,Mycobacterium avium [30],32 µg/mL
same,MIC,Mycobacterium avium [31],2 µg/mL
same,MIC,Mycobacterium avium [32],1 µg/mL
same,MIC,Mycobacterium avium [33],6.25 µg/mL
same,MIC,Mycobacterium avium [34],4 µg/mL
same,MIC,Mycobacterium avium [35],6.25 µg/mL
same,MIC,Mycobacterium avium [36],12.5 µg/mL
same,MIC,Mycobacterium avium [37],16 µg/mL
same,MIC,Mycobacterium avium [38],8 µg/mL
same,MIC,Mycobacterium avium [39],128 µg/mL
same,MIC,Mycobacterium avium [40],1020 µg/mL
same,MIC,Mycobacterium avium [41],6.25 µg/mL
same,MIC,Mycobacterium avium [42],12.5 µg/mL
same,MIC,Mycobacterium avium [43],> 512 µg/mL
same,MIC,Mycobacterium avium [44],8 µg/mL
same,CC50 at 72 h,[45],56.9 µM
same,MTC,[45],10 µM
same,MIC,Mycobacterium avium [46],512 µg/mL
same,MIC,Mycobacterium avium [47],4 µg/mL
same,MIC,Mycobacterium avium [48],256 µg/mL
same,MIC,Mycobacterium avium [49],16 µg/mL
same,MIC,Mycobacterium avium [50],0.5 µg/mL
same,MIC,Mycobacterium avium [51],2 µg/mL
same,MIC,Mycobacterium avium [52],128 µg/mL
same,MIC,Mycobacterium avium [53],8 µg/mL
same,MIC,Mycobacterium avium [54],2 µg/mL
same,MIC,Mycobacterium avium [55],8 µg/mL
same,MIC,Mycobacterium avium [56],256 µg/mL
same,MIC,Mycobacterium avium [57],4 µg/mL
same,MIC,Mycobacterium avium [58],2 µg/mL
same,MIC,Mycobacterium avium [59],4 µg/mL
same,MIC,Mycobacterium avium [60],8 µg/mL
same,MIC,Mycobacterium avium [61],16 µg/mL
same,MIC,Mycobacterium avium [62],3.12 µg/mL
same,MIC,Mycobacterium avium [63],1 µg/mL
same,MIC,Mycobacterium avium [64],32 µg/mL
same,MIC,[65],16 µg/mL
same,MIC,Mycobacterium avium [66],16 µg/mL
same,MIC,Mycobacterium avium [67],0.5 µg/mL
same,selectivity ratio,[68],2 to 4
CN(C)CCCN1c2ccccc2Sc2ccc(Cl)cc21 [CHLORPROMAZINE],MIC,Mycobacterium avium [1],> 512 µg/mL
same,MIC,Mycobacterium avium [2],1 µg/mL
same,MIC,Mycobacterium avium [3],4 µg/mL
same,MIC,Mycobacterium avium [4],0.25 µg/mL
same,MIC,[5],< 1 µg/mL
same,MIC,Mycobacterium avium [6],30 µg/mL
same,MIC,Mycobacterium avium [7],< 0.0625 µg/mL
same,MIC,Mycobacterium avium [8],12.5 µg/mL
same,MIC,Mycobacterium avium [9],64 µg/mL
same,MIC,Mycobacterium avium [10],16 µg/mL
same,MIC,Mycobacterium avium [11],3.12 µg/mL
same,MIC,[12],1 µg/mL
same,MIC,Mycobacterium avium [13],< 4 µg/mL
same,MIC,[14],< 0.5 µg/mL
same,MIC,Mycobacterium avium [15],128 µg/mL
same,MIC,[16],< 0.39 µg/mL
same,MIC,[17],< 0.125 µg/mL
same,MIC,Mycobacterium avium [18],6.25 µg/mL
same,MIC,Mycobacterium avium [19],0.5 µg/mL
same,MIC,Mycobacterium avium [20],8 µg/mL
same,MIC,Mycobacterium avium [21],128 µg/mL
same,MIC,Mycobacterium avium [22],8 µg/mL
same,MIC,Mycobacterium avium [23],8 µg/mL
same,MIC,[24],16 µg/mL
same,MIC,Mycobacterium avium [25],> 512 µg/mL
same,MIC,Mycobacterium avium [26],0.0625 µg/mL
same,MIC,Mycobacterium avium [27],2 µg/mL
same,MIC,[28],16 µg/mL
same,MIC,Mycobacterium avium [29],8 µg/mL
same,MIC,Mycobacterium avium [30],64 µg/mL
same,MIC,Mycobacterium avium [31],< 0.031 µg/mL
same,MIC,Mycobacterium avium [32],1 µg/mL
same,MIC,Mycobacterium avium [33],6.25 µg/mL
same,MIC,Mycobacterium avium [34],4 µg/mL
same,MIC,Mycobacterium avium [35],6.25 µg/mL
same,MIC,Mycobacterium avium [36],12.5 µg/mL
same,MIC,Mycobacterium avium [37],44 µg/mL
same,MIC,Mycobacterium avium [38],< 4 µg/mL
same,MIC,Mycobacterium avium [39],30 µg/mL
same,MIC,Mycobacterium avium [40],> 512 µg/mL
same,MIC,Mycobacterium avium [41],1.56 µg/mL
same,MIC,Mycobacterium avium [42],3.12 µg/mL
same,MIC,Mycobacterium avium [43],> 512 µg/mL
same,MIC,Mycobacterium avium [44],32 µg/mL
same,CC50 at 72 h,[45],22.2 µM
same,MTC,[45],1.25 µM
same,MIC,Mycobacterium avium [46],> 512 µg/mL
same,MIC,Mycobacterium avium [47],4 µg/mL
same,MIC,Mycobacterium avium [48],512 µg/mL
same,MIC,Mycobacterium avium [49],8 µg/mL
same,MIC,Mycobacterium avium [50],1 µg/mL
same,MIC,Mycobacterium avium [51],2 µg/mL
same,MIC,Mycobacterium avium [52],64 µg/mL
same,MIC,Mycobacterium avium [53],4 µg/mL
same,MIC,Mycobacterium avium [54],4 µg/mL
same,MIC,Mycobacterium avium [55],1 µg/mL
same,MIC,Mycobacterium avium [56],128 µg/mL
same,MIC,Mycobacterium avium [57],1 µg/mL
same,MIC,Mycobacterium avium [58],2 µg/mL
same,MIC,Mycobacterium avium [59],0.5 µg/mL
same,MIC,Mycobacterium avium [60],4 µg/mL
same,MIC,Mycobacterium avium [61],64 µg/mL
same,MIC,Mycobacterium avium [62],< 0.195 µg/mL
same,MIC,Mycobacterium avium [63],4 µg/mL
same,MIC,Mycobacterium avium [64],< 4 µg/mL
same,MIC,[65],< 0.25 µg/mL
same,MIC,Mycobacterium avium [66],> 512 µg/mL
same,MIC,Mycobacterium avium [67],< 0.031 µg/mL
